Experimental data taken from ChEMBL document CHEMBL2331400, “Structure-based design and evaluation of naphthalene diimide G-quadruplex ligands as telomere targeting agents in pancreatic cancer cells” (J Med Chem, 2013).
pIC50: −log10 of the molar value. Calls of active or inactive are those of the source. The rule behind the calls is not given here.

Experiments:
MIA PaCa-2 [1] = experiment: Induction of gamma-H2AX gene expression in human MIAPaCa2 cells by qPCR analysis; type: functional, cell-based
MIA PaCa-2 [2] = experiment: Downregulation of UNG gene expression in human MIAPaCa2 cells at 160 nM after 24 hrs by qPCR analysis; type: functional, cell-based
MIA PaCa-2 [3] = experiment: Downregulation of NTHL1 gene expression in human MIAPaCa2 cells at 160 nM after 24 hrs by qPCR analysis; type: functional, cell-based
MIA PaCa-2 [4] = experiment: Upregulation of GADD45A gene expression in human MIAPaCa2 cells at cytotoxic concentration after 24 hrs by qPCR analysis; type: functional, cell-based
MIA PaCa-2 [5] = experiment: Downregulation of PPP1R15A gene expression in human MIAPaCa2 cells at subcytotoxic concentration after 24 hrs by qPCR analysis; type: functional, cell-based
MIA PaCa-2 [6] = experiment: Downregulation of GADD45A gene expression in human MIAPaCa2 cells at subcytotoxic concentration after 24 hrs by qPCR analysis; type: functional, cell-based
MIA PaCa-2 [7] = experiment: Upregulation of PPARG gene expression in human MIAPaCa2 cells at 20 to 80 nM after 24 hrs by qPCR analysis relative to solvent-treated control; type: functional
MIA PaCa-2 [8] = experiment: Cytotoxicity against human MIAPaCa2 cells assessed as growth inhibition at 160 nM after 72 hrs by microscopic analysis; type: functional, cell-based
MIA PaCa-2 [9] = experiment: Cytotoxicity against human MIAPaCa2 cells assessed as growth inhibition at 80 nM after 72 hrs by microscopic analysis; type: functional, cell-based
MIA PaCa-2 [10] = experiment: Cytotoxicity against human MIAPaCa2 cells assessed as growth inhibition at 5 to 40 nM after 144 hrs by microscopic analysis; type: functional, cell-based
[11] = Cytotoxicity against human RCC4 cells assessed as growth inhibition after 96 hrs by SRB assay; type: functional, cell-based; settings: RCC4, 96 h
unidentified [12] = experiment: Stabilization of HSP90b promoter sequence 5'-FAM-d(GGGCGGGCCAAAGGGAAGGGG)-TAMRA-3' (unknown origin) assessed as melting temperature at 1 uM by FRET assay
unidentified [13] = experiment: Stabilization of HSP90a promoter sequence 5'-FAM-d(GGGCCAAAGGGAAGGGGTGGG)-TAMRA-3' (unknown origin) assessed as melting temperature at 1 uM by FRET assay

SMILES: CN1CCN(CCCNc2cc3c4c(c(NCCCN5CCN(C)CC5)cc5c4c2C(=O)N(CCCN2CCOCC2)C5=O)C(=O)N(CCCN2CCOCC2)C3=O)CC1
- Activity (MIA PaCa-2 [1]): Active
- Activity (MIA PaCa-2 [2]): Active
- Activity (MIA PaCa-2 [3]): Active
- Activity (MIA PaCa-2 [4]): Active
- Activity (MIA PaCa-2 [5]): inactive
- Activity (MIA PaCa-2 [6]): inactive
- fold change (FC) (MIA PaCa-2 [7]): >2
- growth inhibition (GI) (MIA PaCa-2 [8]): Active
- growth inhibition (GI) (MIA PaCa-2 [9]): inactive
- growth inhibition (GI) (MIA PaCa-2 [10]): inactive
- pIC50 [11]: 6.25
- ΔTm (unidentified [12]): 28.6 °C
- ΔTm (unidentified [13]): 33.1 °C
